From patent US6284468A, “Composition and methods for determining the activity of DNA-binding proteins and of initiation of trascription” (Dnab Diagnostics, Inc., priority 2000, dated 2001)

Legend:
[1] = molecular target: T1, Escherichia coli RNA polymerase (Escherichia coli, UniProt P0A8V2); test: Binding of RNA polymerase to the promoter sequence (protection of pDNAB-tac from BseRI cleavage, before addition of ribonucleotide triphosphates); settings: various concentrations of rifampicin, FIG. 14
T1 construct: purchased Pharmacia, Uppsala, Sweden
Procedure: The following experiment was conducted to measure the DNA-binding activity of RNA polymerase to its cognate nucleotide recognition sequence. The incubation buffer contained 50 mM tris HCI (pH 8), 5 mM MgCl2, 100 mM potassium glutamate, and 3, μg of pDNABtac DNA in 60 μL final volume. One to 9 units of RNA polymerase (Boehringer-Mannheim, Mannheim, Germany) were added and, after preincubation at 37° C. for 5 minutes, the reaction was cooled to 31° C.
In order to measure the inhibition of the initiation of transcription, the effect of various concentrations of rifampicin on the de-protection of the BseRI site was measured. Rifampicin is an antibiotic used in the therapy of bacterial infections (e.g. tuberculosis) and it specifically targets bacterial RNA polymerase, by inhibiting its transcription activity. […] After 5 minutes of incubation, rifampicin and BseRI were added and the amount of uncleaved plasmid was measured after 20 minutes of incubation at 37° C. The 4 ribonucleotide triphosphates were then added and the amount of uncleaved plasmid was measured again after 20 more minutes of incubation at 37° C.
The white bars represent the fluorescence units (i.e. the amount of uncleaved plasmid) before the addition of the 4 ribonucleoside triphosphates, while the hatched bars represent the fluorescence units left after addition of the 4 ribonucleotide triphosphates.

[2] = molecular target: T1, Escherichia coli RNA polymerase; test: Inhibition of initiation of transcription (de-protection of BseRI site of plasmid pDNAB-tac, ethidium bromide fluorescence); type: biochemical
Procedure: In order to measure the initiation of transcription RNA polymerase was added to 0.5 μg of pDNAB-tac plasmid following the same procedure described above for the measurement of DNA-binding activity. The 4 ribonucleotide triphosphates (ATP, CTP, GTP and UTP) were then added to the reaction mixture followed by BseRI and the amount of CCC DNA left was measured after 20 minutes using ethidium bromide fluorescence as in Example 1. In the presence of the 4 ribonucleotide triphosphates the RNA polymerase starts polymerizing an RNA molecule and it moves away from the promoter sequence, thereby de-protecting the BseRI cleavage site. Cleavage at this site can take place then.
In order to measure the inhibition of the initiation of transcription, the effect of various concentrations of rifampicin on the de-protection of the BseRI site was measured. […] After 5 minutes of incubation, rifampicin and BseRI were added and the amount of uncleaved plasmid was measured after 20 minutes of incubation at 37° C. The 4 ribonucleotide triphosphates were then added and the amount of uncleaved plasmid was measured again after 20 more minutes of incubation at 37° C. […]
The relative effects of rifampicin on transcription was quantitated using the formula [formula] […]

In the case of CO[C@H]1/C=C/O[C@@]2(C)Oc3c(C)c(O)c4c(O)c(c(/C=N/N5CCN(C)CC5)c(O)c4c3C2=O)NC(=O)/C(C)=C\C=C\[C@H](C)[C@H](O)[C@@H](C)[C@@H](O)[C@@H](C)[C@H](OC(C)=O)[C@@H]1C [rifampicin], the “inhibition of the binding of RNA polymerase to the promoter sequence” value [1] is reported as “not of the binding of RNA polymerase to the promoter sequence”, the Ki ([2]; Michaelis-Menten fit of % inhibition, rifampicin 0.2 μM to 3.2 μM, plasmid pDNAB-tac, 37° C., read-out: apparent Ki of rifampicin (inhibition of initiation of transcription activity)) is reported as 2800 nM and the “inhibition of the transcription initiation activity” value ([2]; various concentrations of rifampicin, with the 4 ribonucleotide triphosphates, FIG. 14) is reported as “dose-dependent inhibition”.
